Measured values taken from ChEMBL document CHEMBL1201862, “PubChem BioAssay data set” (2004).
The source made the active and inactive calls. For most assays here, no stated cut-off is given here; in the data, actives have a measured IC50 and inactives only a lower limit.

Tests used:
[1] = molecular target: T1, Eukaryotic translation initiation factor 4H (Homo sapiens, UniProt Q15056); assay: inhibitors of translation initiation factor eIF4H – SAR follow-up (AID 435011); format: functional
[2] = molecular target: T1, Eukaryotic translation initiation factor 4H; assay: eIF4H binding inhibition – biochemical, uHTS, fluorescence polarization, translation initiation inhibitor project, primary screen (AID 2012)
[3] = molecular target: T2, Polyadenylate-binding protein 1 (Homo sapiens, UniProt P11940); assay: PABP inhibition in translation initiation, SAR follow-up (AID 435018); format: functional
[4] = molecular target: T2, Polyadenylate-binding protein 1; assay: blockers of PABP interaction with poly(A) – biochemical, fluorescence polarization, […] (AID 2014)
HEK293 = assay: cells; conditions: Homo sapiens;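 further: cells exposed to compound for 14 hours overnight before viability readout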
Interleukin-8 = Interleukin-8 (Homo sapiens, UniProt P10145); assay: SAR analysis of tumor necrosis factor alpha (TNF-alpha) induced IL-8 secretion in MCF-7/NOD1 cells. [Related pubchem assays (depositor defined):AID1575, AID2250, AID2260]; format: functional, cell-based
Tumor necrosis factor = Tumor necrosis factor (Homo sapiens, UniProt P01375); assay: analog potency on TNFa NF-kB signaling – cell-based, revised, SAR follow-up (AID 2337); format: functional
[5] = molecular target: T3, Neuropeptides B/W receptor type 1 (Homo sapiens, UniProt P48145); assay: Fluorescence-based dose response cell-based high throughput screening assay to identify antagonists of the G-protein coupled receptor 7 (GPR7). [Related pubchem assays: 1952 (Screening assay (GPR7 antagonists).), 1880 (Summary AID.)]; format: functional
T3 sequence (P48145 whole entry): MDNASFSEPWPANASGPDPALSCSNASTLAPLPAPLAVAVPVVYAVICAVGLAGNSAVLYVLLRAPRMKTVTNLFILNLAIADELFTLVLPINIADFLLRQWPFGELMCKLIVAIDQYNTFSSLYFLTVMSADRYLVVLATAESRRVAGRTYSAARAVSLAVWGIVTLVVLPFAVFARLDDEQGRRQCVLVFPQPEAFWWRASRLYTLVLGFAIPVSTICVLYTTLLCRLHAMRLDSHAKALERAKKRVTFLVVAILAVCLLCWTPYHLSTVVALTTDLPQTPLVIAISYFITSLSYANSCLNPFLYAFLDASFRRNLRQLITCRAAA

[6] = molecular target: Melanin-concentrating hormone receptor 1 (Homo sapiens, UniProt Q99705); assay: Fluorescence-based counterscreen for antagonists of the G-protein coupled receptor 7 (GPR7): cell-based high throughput dose response assay to identify antagonists of the melanin-concentrating hormone receptor 1 (MCHR1).; format: functional
Chain of Melanin-concentrating hormone receptor 1 (Q99705 whole entry): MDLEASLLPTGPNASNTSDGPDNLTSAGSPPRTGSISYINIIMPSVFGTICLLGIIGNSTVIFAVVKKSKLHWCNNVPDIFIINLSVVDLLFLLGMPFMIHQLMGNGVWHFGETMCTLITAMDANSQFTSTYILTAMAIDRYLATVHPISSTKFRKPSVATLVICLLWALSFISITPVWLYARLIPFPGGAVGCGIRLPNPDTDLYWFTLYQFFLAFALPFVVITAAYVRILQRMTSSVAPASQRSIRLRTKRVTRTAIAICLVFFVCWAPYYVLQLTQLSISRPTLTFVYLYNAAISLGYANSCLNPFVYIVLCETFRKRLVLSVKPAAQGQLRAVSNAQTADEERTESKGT

T2 sequence (P11940 whole entry): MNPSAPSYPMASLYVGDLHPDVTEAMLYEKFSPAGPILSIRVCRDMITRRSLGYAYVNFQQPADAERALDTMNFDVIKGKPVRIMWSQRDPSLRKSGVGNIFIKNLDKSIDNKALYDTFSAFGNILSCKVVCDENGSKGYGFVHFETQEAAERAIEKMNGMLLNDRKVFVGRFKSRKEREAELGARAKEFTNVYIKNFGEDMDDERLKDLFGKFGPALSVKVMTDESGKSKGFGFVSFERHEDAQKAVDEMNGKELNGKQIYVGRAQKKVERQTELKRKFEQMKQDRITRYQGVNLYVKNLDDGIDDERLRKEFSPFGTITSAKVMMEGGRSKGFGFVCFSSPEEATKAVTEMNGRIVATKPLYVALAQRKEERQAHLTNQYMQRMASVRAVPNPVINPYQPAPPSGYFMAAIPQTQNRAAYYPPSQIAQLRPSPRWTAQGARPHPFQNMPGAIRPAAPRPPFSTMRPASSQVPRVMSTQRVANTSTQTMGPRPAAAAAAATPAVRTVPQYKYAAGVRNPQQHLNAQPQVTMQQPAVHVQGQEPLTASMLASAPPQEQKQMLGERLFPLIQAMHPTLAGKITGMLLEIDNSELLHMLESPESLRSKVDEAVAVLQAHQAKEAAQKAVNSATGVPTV
Chain of Interleukin-8 (P10145 whole entry): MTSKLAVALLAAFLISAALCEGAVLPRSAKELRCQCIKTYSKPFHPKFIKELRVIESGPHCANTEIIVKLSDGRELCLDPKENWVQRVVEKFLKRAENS
Chain of Tumor necrosis factor (P01375 whole entry): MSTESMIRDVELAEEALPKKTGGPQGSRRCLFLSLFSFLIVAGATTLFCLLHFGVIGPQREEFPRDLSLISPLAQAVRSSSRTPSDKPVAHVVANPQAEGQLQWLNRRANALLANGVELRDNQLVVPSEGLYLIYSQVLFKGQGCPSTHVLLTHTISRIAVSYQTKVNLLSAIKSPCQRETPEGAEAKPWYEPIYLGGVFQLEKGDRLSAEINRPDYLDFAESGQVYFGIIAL

Cc1ccc(OC(C)C(=O)Nc2ccc3c(c2)n(C)c(=O)n3C)c(C)c1 (centres undefined)
IC50 [1]: 35 µM (active) | IC50 [2]: > 100 µM (inactive) | IC50 [3]: 4.39 µM (active) | IC50 [4]: 16.2 µM (active)

Cc1ccc(S(=O)(=O)n2cnc3ccccc32)cc1
IC50 (HEK293): > 20 µM (inactive) | IC50 (Interleukin-8): > 5 µM (inactive) | IC50 (Tumor necrosis factor): > 20 µM (inactive)

COC(=O)C(O)(c1ccc(N(C)C(=O)c2ccc(Cl)c(Cl)c2)cc1)C(F)(F)F (centres undefined)
IC50 [5]: > 14.6 µM (not active) | IC50 [6]: 15 µM (not active)
